Reference: PMC8795738, “The Tarantula Venom Peptide Eo1a Binds to the Domain II S3-S4 Extracellular Loop of Voltage-Gated Sodium Channel NaV1.8 to Enhance Activation” (Frontiers in Pharmacology, 2022)
Where a SMILES comes first, the peptide text is derived from it. Bridges are numbered along the chain shown (N, C = ends).

Assays:
mice = test: Spontaneous pain behaviours after intraplantar injection in mice; assay type: in vivo, mouse; details: 40 μl intraplantar, n = 3–4
Text: Adult male C57BL/6J mice aged 4–8 weeks were sourced from the Animal Resource Centre (Canning Vale, Western Australia). Adult male NaV1.8 knockouts ([Nassar et al., 2004]) (aged 8–11 weeks) and wild-type littermates were housed and tested at University College London. Animals were housed in groups of three or four per cage under 12-h light-dark cycles and were provided with standard rodent chow and water ad libitum. Ethical approval for experiments involving animals was obtained from The University of Queensland animal ethics committee (TRI/IMB/093/17, IMB/PACE/421/18) and the United Kingdom Home Office (project licence PPL 70/7382). All experiments were conducted in accordance with the International Association for the Study of Pain Guidelines for the Use of Animals in Research and the Australian Code of Practice for the Care and Use of Animals for Scientific Purposes, 8th edition (2013).
Eo1a (1 μM or 10 μM) was diluted in saline/0.1% BSA and administered by intraplantar injection to the left hind paw of mice in a volume of 40 μl under isoflurane (3%) anaesthesia, and spontaneous pain behaviours (licks, bites, shakes, and lifts of the hind paw) were counted by a blinded investigator for up to 40 min after the injection.

[1] = system: NaV1.7 with DII S1-S2 loop of NaV1.8; test: Voltage-dependence of activation, NaV1.7/NaV1.8 chimera DII S1-S2; assay type: cell-based, human; details: Eo1a 10 μM; NaV1.7 with NaV1.8 DII S1-S2; HEK293 β1/β2, transient; mean ± SEM, n = 3–6 cells
Protocol: (§1) Human Embryonic Kidney (HEK) 293 cells stably expressing human NaV1.1 to NaV1.7/β1 (SB Drug Discovery, Glasgow, United Kingdom), Chinese Hamster Ovary (CHO) cells stably expressing human NaV1.8/β3 in a tetracycline-inducible system (ChanTest, Cleveland, OH, United States), and HEK293 cells stably expressing rat transient receptor potential vanilloid 1 (TRPV1) were cultured as previously described ([Yin et al., 2020]). Human KV2.1 and NaV1.7 mutants were transiently transfected into HEK293 cells stably expressing β1/β2 using Lipofectamine 2000 (Thermo Fisher Scientific, Scoresby, VIC, Australia) and used for patch-clamp experiments 48 h after transfection. Cells were grown in an incubator at 37°C with 5% CO2 and passaged every 3–4 d (at 70–80% confluency) using TrypLE Express (Thermo Fisher Scientific).
Wild-type (WT) hNaV1.7 cDNA (NM_002,977, a gift from Dr James Cox, University College London) was subjected to in vitro site-directed mutagenesis using the QuikChange™ XL mutagenesis kit (Agilent Technologies) following the manufacturer’s instructions. NaV1.7 mutants were generated by substituting the domain II (DII) S1-S2 loop, the DII S3-S4 loop, the domain IV (DIV) S1-S2 loop and the DIV S3-S4 loop in NaV1.7 with the corresponding regions of NaV1.8. The mutations were verified by sequencing at the Brisbane node of the Australian Genome Research Facility. […]

NaV1.1 = test: I-V protocol, whole-cell patch-clamp, NaV1.1; assay type: cell-based, human; details: Eo1a 10 μM
Protocol: as §1
Automated whole-cell patch-clamp recordings were performed with a QPatch-16 automated electrophysiology platform (Sophion Bioscience, Ballerup, Denmark) using single-hole (QPlate 16 with a standard resistance of 2 ± 0.4 MΩ) or multi-hole (QPlate 16X with a standard resistance 0.2 ± 0.04 MΩ, NaV1.8 only) as previously described ([McMahon et al., 2020]).
The extracellular solution (ECS) consisted of (in mM) 145 NaCl (replaced with 70 choline chloride for NaV1.4, NaV1.5 and NaV1.7), 4 KCl, 2 CaCl2, 1 MgCl2, 10 HEPES, and 10 glucose, pH to 7.4 with NaOH (adjusted to 305 mOsm/L with sucrose). For NaV recordings the intracellular solution (ICS) consisted of (in mM) 140 CsF, 1 EGTA, 5 CsOH, 10 HEPES, and 10 NaCl, pH to 7.3 with CsOH (adjusted to 320 mOsm/L with sucrose). For KV2.1 recordings the ICS consisted of (in mM) 50 KCl, 60 KF, 10 EGTA, 10 HEPES, 10 NaCl pH to 7.3 with KOH (adjusted to 320 mOsm/L with sucrose). TTX (1 μM) was added to the ECS for NaV1.8 recordings to inhibit background endogenous TTX sensitive current in CHO cells.
I-V curves were obtained with a holding potential of −90 mV followed by a series of 500 ms step pulses that ranged from −110 to +80 mV in 5-mV increments (repetition interval 5 s) before and after 5 min incubation with Eo1a (10 μM). Conductance-voltage (G-V) curves were obtained by calculating the conductance (G) at each voltage (V) using equation G = I/(V − V rev ), where V rev is the reversal potential. G-V curves were fitted with a Boltzmann equation. […]
The time constant of fast inactivation (τ) was computed by fitting the current decay traces with a single exponential function using QPatch Assay Software 5.6 (Sophion). The time to peak was calculated from pulse onset to peak inward current using QPatch Assay Software 5.6 (Sophion).

CC[C@H](C)[C@@H]1NC(=O)[C@H](CCCNC(=N)N)NC(=O)[C@@H]2CSSC[C@@H]3NC(=O)CNC(=O)CNC(=O)[C@H](CC(C)C)NC(=O)[C@H](Cc4ccccc4)NC(=O)[C@H](Cc4c[nH]c5ccccc45)NC(=O)[C@H](CCCNC(=N)N)NC(=O)[C@@H](NC(=O)[C@@H](N)CC(=O)O)CSSC[C@H](NC(=O)[C@H](CSSC[C@@H](C(=O)N[C@@H](C)C(=O)N[C@@H](Cc4c[nH]c5ccccc45)C(=O)N[C@@H](CC(=O)O)C(=O)NCC(=O)N[C@H](C(=O)N[C@@H](Cc4ccccc4)C(N)=O)[C@@H](C)O)NC(=O)[C@H](Cc4ccc(O)cc4)NC(=O)[C@H](CCCCN)NC(=O)[C@H]([C@@H](C)CC)NC(=O)[C@H](Cc4ccc(O)cc4)NC(=O)CNC(=O)[C@H](CC(=O)O)NC1=O)NC(=O)[C@H](CC(=O)O)NC(=O)[C@H](CO)NC(=O)[C@H](CC(=O)O)NC(=O)[C@H](CCCCN)NC(=O)[C@H](CO)NC3=O)C(=O)N[C@@H](CCCCN)C(=O)N[C@@H](Cc1c[nH]cn1)C(=O)N[C@@H](CC(C)C)C(=O)N[C@@H](C)C(=O)N2 [Eo1a] (H-DCRWFLGGCSKDSDCCKHLACRIDGYIKYCAWDGTF-NH2; disulfide 2-16, 9-21, 15-30 (inferred); N-terminus assumed)
spontaneous pain behaviours (mice; Eo1a 1 μM): induced spontaneous pain behaviours
spontaneous pain behaviours (mice; Eo1a 10 μM, gradually subsided over 30 min): caused spontaneous pain behaviours that gradually subsided over 30 min
ΔV1/2 activation [1]: −3.7 ± 0.5 mV
peak current I/I0 (NaV1.1; 5 min, peak from I-V protocol at any voltage, normalised to buffer control, HEK293 hNaV1.1/β1, mean ± SEM, n = 4–6 cells): 0.89 ± 0.03
V1/2 activation (NaV1.1; NaV1.1, 5 min, control −21.5 ± 1.5 mV, mean ± SEM, n = 4–6): −24.4 ± 2.1 mV
V1/2 inactivation (steady-state fast inactivation) (NaV1.1; NaV1.1, 5 min, control −55.0 ± 1.1 mV, mean ± SEM, n = 4–6): −57.8 ± 2.0
effect on inactivation kinetics (NaV1.1; NaV1.1, test pulse −20 mV): minimal effect
